According to the NIST ThermoML archive (doi:10.1021/je060355j):
± gives the expanded uncertainty stated by the source.

Tests used:
[1] = xn = mol fraction of the nth substance listed; conditions: 101.32 kPa, Liquid
[2] = excess molar enthalpy (molar enthalpy of mixing); xn = mol fraction of the nth substance listed; conditions: 101.32 kPa, Liquid

CCCCOC=O [butyl methanoate] + CCCCCC
mass density ([1]; 291.15 K, x1 = 0.0445): 669.6 ± 2 kg/m3 | mass density ([1]; 291.15 K, x1 = 0.09): 678.6 ± 2 kg/m3 | mass density ([1]; 291.15 K, x1 = 0.1461): 689.8 ± 2 kg/m3 | mass density ([1]; 291.15 K, x1 = 0.1928): 699.5 ± 2 kg/m3 | mass density ([1]; 291.15 K, x1 = 0.249): 711.4 ± 2 kg/m3 | mass density ([1]; 291.15 K, x1 = 0.3018): 722.7 ± 2 kg/m3 | mass density ([1]; 291.15 K, x1 = 0.4025): 745.2 ± 1.9 kg/m3 | mass density ([1]; 291.15 K, x1 = 0.5021): 768.3 ± 1.9 kg/m3 | mass density ([1]; 291.15 K, x1 = 0.5957): 790.7 ± 2 kg/m3 | mass density ([1]; 291.15 K, x1 = 0.6963): 815.7 ± 2 kg/m3 | mass density ([1]; 291.15 K, x1 = 0.7541): 830.4 ± 2.1 kg/m3 | mass density ([1]; 291.15 K, x1 = 0.802): 842.7 ± 2.1 kg/m3 | mass density ([1]; 291.15 K, x1 = 0.8532): 856.1 ± 2.2 kg/m3 | mass density ([1]; 291.15 K, x1 = 0.8987): 868.2 ± 2.2 kg/m3 | mass density ([1]; 291.15 K, x1 = 0.9575): 884.3 ± 2.3 kg/m3 | mass density ([1]; 291.15 K, x1 = 1): 896 ± 2.4 kg/m3 | mass density ([1]; 298.15 K, x1 = 0.0729): 669.39 ± 2 kg/m3 | mass density ([1]; 298.15 K, x1 = 0.1321): 681.03 ± 2 kg/m3 | mass density ([1]; 298.15 K, x1 = 0.1967): 694.2 ± 2 kg/m3 | mass density ([1]; 298.15 K, x1 = 0.2658): 708.76 ± 2 kg/m3 | mass density ([1]; 298.15 K, x1 = 0.336): 723.94 ± 2 kg/m3 | mass density ([1]; 298.15 K, x1 = 0.3698): 731.4 ± 2 kg/m3 | mass density ([1]; 298.15 K, x1 = 0.4886): 758.31 ± 2 kg/m3 | mass density ([1]; 298.15 K, x1 = 0.5876): 781.81 ± 2 kg/m3 | mass density ([1]; 298.15 K, x1 = 0.6855): 805.81 ± 2 kg/m3 | mass density ([1]; 298.15 K, x1 = 0.7677): 826.55 ± 2.1 kg/m3 | mass density ([1]; 298.15 K, x1 = 0.8136): 838.26 ± 2.1 kg/m3 | mass density ([1]; 298.15 K, x1 = 0.8574): 849.77 ± 2.2 kg/m3 | mass density ([1]; 298.15 K, x1 = 0.8986): 860.63 ± 2.2 kg/m3 | mass density ([1]; 298.15 K, x1 = 0.9227): 867.09 ± 2.3 kg/m3 | mass density ([1]; 298.15 K, x1 = 0.9714): 880.08 ± 2.3 kg/m3 | mass density ([1]; 298.15 K, x1 = 1): 888.66 ± 2.4 kg/m3 | mass density ([1]; 308.15 K, x1 = 0.047): 654.6 ± 2.1 kg/m3 | mass density ([1]; 308.15 K, x1 = 0.1095): 666.7 ± 2.1 kg/m3 | mass density ([1]; 308.15 K, x1 = 0.1485): 674.6 ± 2.1 kg/m3 | mass density ([1]; 308.15 K, x1 = 0.2005): 685.2 ± 2 kg/m3 | mass density ([1]; 308.15 K, x1 = 0.2579): 697.2 ± 2 kg/m3 | mass density ([1]; 308.15 K, x1 = 0.2981): 705.7 ± 2 kg/m3 | mass density ([1]; 308.15 K, x1 = 0.4033): 728.8 ± 2 kg/m3 | mass density ([1]; 308.15 K, x1 = 0.5098): 753.1 ± 2 kg/m3 | mass density ([1]; 308.15 K, x1 = 0.6081): 776.4 ± 2 kg/m3 | mass density ([1]; 308.15 K, x1 = 0.7112): 801.8 ± 2.1 kg/m3 | mass density ([1]; 308.15 K, x1 = 0.7576): 813.5 ± 2.1 kg/m3 | mass density ([1]; 308.15 K, x1 = 0.8073): 826.3 ± 2.2 kg/m3 | mass density ([1]; 308.15 K, x1 = 0.8511): 837.7 ± 2.2 kg/m3 | mass density ([1]; 308.15 K, x1 = 0.9081): 852.9 ± 2.3 kg/m3 | mass density ([1]; 308.15 K, x1 = 0.9598): 867.3 ± 2.3 kg/m3 | mass density ([1]; 308.15 K, x1 = 1): 878.24 ± 2.4 kg/m3 | mass density ([1]; 318.15 K, x1 = 0.0493): 645.6 ± 2.1 kg/m3 | mass density ([1]; 318.15 K, x1 = 0.0857): 652.7 ± 2.1 kg/m3 | mass density ([1]; 318.15 K, x1 = 0.1192): 659.1 ± 2.1 kg/m3 | mass density ([1]; 318.15 K, x1 = 0.1589): 666.9 ± 2.1 kg/m3 | mass density ([1]; 318.15 K, x1 = 0.1975): 674.7 ± 2.1 kg/m3 | mass density ([1]; 318.15 K, x1 = 0.2452): 684.5 ± 2.1 kg/m3 | mass density ([1]; 318.15 K, x1 = 0.3006): 696.2 ± 2.1 kg/m3 | mass density ([1]; 318.15 K, x1 = 0.4015): 718 ± 2 kg/m3 | mass density ([1]; 318.15 K, x1 = 0.495): 739.2 ± 2 kg/m3 | mass density ([1]; 318.15 K, x1 = 0.5929): 762.2 ± 2.1 kg/m3 | mass density ([1]; 318.15 K, x1 = 0.705): 789.5 ± 2.1 kg/m3 | mass density ([1]; 318.15 K, x1 = 0.746): 799.7 ± 2.1 kg/m3 | mass density ([1]; 318.15 K, x1 = 0.8134): 817.05 ± 2.2 kg/m3 | mass density ([1]; 318.15 K, x1 = 0.9067): 841.5 ± 2.3 kg/m3 | mass density ([1]; 318.15 K, x1 = 0.9647): 857.1 ± 2.4 kg/m3 | mass density ([1]; 318.15 K, x1 = 1): 867.21 ± 2.4 kg/m3 | excess molar enthalpy ([2]; 291.15 K, x1 = 0.0865): 0.0769 ± 0.00174 kcal/mol | excess molar enthalpy ([2]; 291.15 K, x1 = 0.1588): 0.134 ± 0.00263 kcal/mol | excess molar enthalpy ([2]; 291.15 K, x1 = 0.2303): 0.183 ± 0.00335 kcal/mol | excess molar enthalpy ([2]; 291.15 K, x1 = 0.2973): 0.216 ± 0.00382 kcal/mol | excess molar enthalpy ([2]; 291.15 K, x1 = 0.3551): 0.237 ± 0.00406 kcal/mol | excess molar enthalpy ([2]; 291.15 K, x1 = 0.4081): 0.248 ± 0.0043 kcal/mol | excess molar enthalpy ([2]; 291.15 K, x1 = 0.454): 0.253 ± 0.0043 kcal/mol | excess molar enthalpy ([2]; 291.15 K, x1 = 0.5114): 0.251 ± 0.0043 kcal/mol | excess molar enthalpy ([2]; 291.15 K, x1 = 0.5606): 0.243 ± 0.00406 kcal/mol | excess molar enthalpy ([2]; 291.15 K, x1 = 0.6177): 0.228 ± 0.00382 kcal/mol | excess molar enthalpy ([2]; 291.15 K, x1 = 0.6775): 0.205 ± 0.00359 kcal/mol | excess molar enthalpy ([2]; 291.15 K, x1 = 0.7406): 0.176 ± 0.00311 kcal/mol | excess molar enthalpy ([2]; 291.15 K, x1 = 0.8067): 0.14 ± 0.00263 kcal/mol | excess molar enthalpy ([2]; 291.15 K, x1 = 0.873): 0.0959 ± 0.00198 kcal/mol | excess molar enthalpy ([2]; 291.15 K, x1 = 0.94): 0.0509 ± 0.00134 kcal/mol | excess molar enthalpy ([2]; 318.15 K, x1 = 0.0808): 0.105 ± 0.00215 kcal/mol | excess molar enthalpy ([2]; 318.15 K, x1 = 0.1626): 0.168 ± 0.00311 kcal/mol | excess molar enthalpy ([2]; 318.15 K, x1 = 0.2415): 0.217 ± 0.00382 kcal/mol | excess molar enthalpy ([2]; 318.15 K, x1 = 0.311): 0.248 ± 0.0043 kcal/mol | excess molar enthalpy ([2]; 318.15 K, x1 = 0.3823): 0.268 ± 0.00454 kcal/mol | excess molar enthalpy ([2]; 318.15 K, x1 = 0.4464): 0.275 ± 0.00454 kcal/mol | excess molar enthalpy ([2]; 318.15 K, x1 = 0.4882): 0.274 ± 0.00454 kcal/mol | excess molar enthalpy ([2]; 318.15 K, x1 = 0.5104): 0.275 ± 0.00454 kcal/mol | excess molar enthalpy ([2]; 318.15 K, x1 = 0.5661): 0.266 ± 0.00454 kcal/mol | excess molar enthalpy ([2]; 318.15 K, x1 = 0.63): 0.25 ± 0.0043 kcal/mol | excess molar enthalpy ([2]; 318.15 K, x1 = 0.7075): 0.219 ± 0.00382 kcal/mol | excess molar enthalpy ([2]; 318.15 K, x1 = 0.7904): 0.175 ± 0.00311 kcal/mol | excess molar enthalpy ([2]; 318.15 K, x1 = 0.868): 0.121 ± 0.00237 kcal/mol | excess molar enthalpy ([2]; 318.15 K, x1 = 0.9412): 0.0645 ± 0.00158 kcal/mol
